These results are taken from US20120021988A1, “METHODS FOR TREATING IMMUNE THROMBOCYTOPENIA” (priority 2007, published 2012).

The subject of experiment [1] is FcγIIIa. The experiment can be described thus: FcγR reverse ELISA: inhibition of PAP immune complex binding (Table 2). The conditions noted are these: PAP/peptide mixture on FcγR coated plates; positive control 1.588. An excerpt:
(§1) For this reason, a “reverse ELISA” technique has been used to assess binding of the Fc region to ligands that bind to immune complexed IgG Fc. In a reverse ELISA, the enzyme (e.g., HRP) is not covalently conjugated to the Fc portion of the secondary antibody. Rather, a preformed immune complex of peroxidase-rabbit (or mouse) anti-peroxidase IgG (“PAP” complex) is used. […] In the reverse ELISA system, an Fc CH2-CH3 cleft binding ligand (e.g., purified human C1q) was bound to microwell plates. In the absence of competitor, PAP complexes bound to the immobilized ligand and the reaction between HRP and its substrate produces a signal. This signal was reduced by polypeptides and compounds that inhibited PAP binding to the immobilized ligand.
(§2) Once the reverse ELISA protocol was established using the C1q assay, the assay was redesigned using FcγIIa, FcγIIb and FcγIII in place of C1q. Highly purified FcγIIa, FcγIIb and FcγIII (R&D Systems, Minneapolis, Minn.) were immunoadsorbed onto plastic microwells. After optimizing the FcγR reverse ELISA system, simple competitive inhibition experiments using polypeptides provided herein were conducted to investigate their ability to inhibit binding of immune complexes to purified FcγR.
(§3) Falcon microtiter plates were coated with 1:10 dilutions of highly purified FcγIIa, FcγIIb and FcγIII and incubated for 24 hours. The plates were washed and then blocked with 5×BSA blocking solution (Alpha Diagnostic International, San Antonio, Tex.) for 24 hours. PAP immune complexes were formed as described in Example 1. PAP (100 μl) were pre-incubated with 100 μl of peptide for one hour. PAP/peptide mixtures were added to the FcγR coated plates and incubated for one hour. After washing, plates were incubated with ABTS substrate (Quidel Corp.) for 15 minutes and read at 405 nm.
On the technique in general: In an ELISA, binding on a coated surface is turned into a signal by an enzyme label.

Experiment [2] concerns FcγIIa (R131 allele). The experiment is described as above. The conditions noted are these: PAP/peptide mixture on FcγR coated plates; positive control 1.599.
Excerpt: as §1, §2, §3

The test system of experiment [3] is FcγIIb. The description is as above. The conditions noted are these: PAP/peptide mixture on FcγR coated plates; positive control 1.394.
Excerpt: as §1, §2, §3

The test system of experiment [4] is Fc receptor (FcγI, FcγIIa/FcγIIb, and FcγIII). Kind of experiment: FcγR reverse ELISA, overall statements on FcR binding to PAP immune complexes. As to the method: as §2, §3
Experiments with SEQ ID NO:20 were repeated. Costar microtiter plates were coated with 1:10 dilutions of highly purified FcγIIa (His 131 allele aka […]), FcγIIb and FcγIIIb and incubated for 24 hours. […] After washing, plates were incubated with ABTS substrate for 15 minutes and read at 405 nm.

As for “Ala-Pro-Pro-Asp-Cys-Ala-Trp-His-Leu-Gly-Glu-Leu-Val-Trp-Cys-Thr (APPDCAWHLGELVWCT) [SEQ ID NO:20]”, the “OD405 FcγIIIa” value in experiment [1] turned out to be 0.670. For the same substance, in experiment [2], the “OD405 FcγIIa (R131 allele)” value turned out to be 0.509. Besides, the “OD405 FcγIIb” value in experiment [3] was 0.496. Moreover, the “Overall inhibition of FcR binding to PAP (ranking in words)” value in experiment [4] (summary of Table 2: FcγIIa, FcγIIb, FcγIIIa) is “greatest overall inhibition of FcR binding to PAP”. Also, the “Inhibition of Fc receptor binding to soluble PAP immune complexes” value in experiment [4] (summary of Table 3) is “inhibited binding of all three major classes of Fc receptor”.
